These results are taken from ChEMBL document CHEMBL4888484, “Replenishing the malaria drug discovery pipeline: Screening and hit evaluation of the MMV Hit Generation Library 1 (HGL1) against asexual blood stage Plasmodium falciparum ,using a nano luciferase reporter read-out” (2022).

The subject of data set [1] is Plasmodium falciparum. The data set can be described thus: Hit confirmation in dose-response curve in NF54 nanoGlo assay, at 12h. The arrangement: timepoint 12 hour. The format is functional, organism-based, Erythrocyte. The conditions noted are these: Plasmodium falciparum, NF54, Erythrocyte, 12 h.
The subject of data set [2] is Plasmodium falciparum. The data set can be described thus: Hit confirmation in dose-response curve in NF54 pLDH assay, at 72h. As to conditions: NF54, Erythrocyte. The format is functional, organism-based. The arrangement: timepoint 72 hour.
The test system of data set [3] is Plasmodium falciparum. The data set can be described thus: Hit confirmation in dose-response curve in Dd2 pLDH assay, at 72h. The format is functional, organism-based. Set-up: timepoint 72 hour. As to conditions: Dd2, Erythrocyte.
The nature of data set [4]: Hit confirmation in dose-response curve in HepG2 cytotoxicity assay, at 72h. The format is toxicity, cell-based. Set-up: timepoint 72 hour. As to conditions: human, HepG2 cells.
Data set [5] concerns Plasmodium falciparum. The data set can be described thus: Hit confirmation in dose-response curve in NF54 nanoGlo assay, at 72h. The format is functional, organism-based, Erythrocyte. As to conditions: Plasmodium falciparum, NF54, Erythrocyte, 72 h. Set-up: timepoint 72 hour.

Usually IC50 stands for the concentration that gives 50% inhibition. Lower therefore signals inhibition by little substance. Consider `Cc1ccc([C@H](c2c[nH]c3ccccc23)N(C)C(=O)C(C)C)cc1`, for which the half-inhibitory concentration (IC50) in data set [1] is 1.51 µM; in data set [2] it was above 10 µM; in data set [3] it was above 10 µM; in data set [5], 2.75 µM. In data set [4], this compound yielded an IC50 at 72 h above 10 µM.
Turning to `O[C@@]1(CN2CCC(COc3ccc4c(c3)CCC4)CC2)CCCNC1`, the IC50 in data set [1] amounted to 6.31 µM; in data set [2], 3.47 µM; in data set [3] it was 2.51 µM; in data set [5] it was 2.14 µM. In data set [4], the IC50 at 72 h was above 10 µM.
As to `COc1cc2c(cc1OC)[C@@H](NC(=O)c1cnc(C3(C)OCCO3)s1)CCCC2`, the IC50 came to 4.79 µM in data set [1], 7.41 µM in data set [2], 4.79 µM in data set [3] and 2.04 µM in data set [5]. Further, the IC50 at 72 h in data set [4] is above 10 µM.
`COc1ccc(-c2c[n+](-c3ccc(Cl)cc3)c3n2CCCCC3)cc1`: the IC50 is above 10 µM in data set [1], 2.24 µM in data set [2], 1 µM in data set [3] and 1.38 µM in data set [5]. This compound had an IC50 at 72 h in data set [4] above 10 µM.
On to `CC[C@H](O)CN1CCC(Nc2ncnc3cc(Cl)ccc23)CC1`, for which the IC50 in data set [1] was 2.95 µM; in data set [2], 1.82 µM; in data set [3], 1.51 µM; in data set [5], 1.62 µM. In data set [4], this compound displayed an IC50 at 72 h above 10 µM.
With `CC(C)(C)n1nc2nc(NCCN3CCCCC3)nc(-c3ccc(F)c(Cl)c3)c2c1N`, the IC50 in data set [1] worked out at 6.03 µM; in data set [2], 2.88 µM; in data set [3], 2.82 µM; in data set [5] it was 1.62 µM. The compound further registered an IC50 at 72 h in data set [4] above 10 µM.
The corresponding values for `COc1ccc(Nc2nnc(-c3ccc(NC(=O)C(=O)NCCCn4ccnc4)cc3)s2)cc1` are 2.69 µM, 6.17 µM, 4.27 µM, 1.29 µM and above 10 µM.
The corresponding values for `COc1ccc(-c2csc(-n3cc(C4=CCN(CCO)CC4)cn3)n2)cc1` are above 10 µM, 5.5 µM, above 10 µM, 5.13 µM and above 10 µM.
Take `c1ccc(CC2=NCCc3ccccc32)cc1`: the IC50 in data set [1] was above 10 µM; in data set [2], 3.02 µM; in data set [3], 1.41 µM; in data set [5] it was 1.29 µM. This compound also came in with an IC50 at 72 h in data set [4] above 10 µM.
With `Cc1ccc2c(c1)c1c(n2S(=O)(=O)c2ccc(C(C)(C)C)cc2)CCCN(C)C1`, the IC50 is above 10 µM in data set [1], 2.29 µM in data set [2], 1.35 µM in data set [3] and 1.48 µM in data set [5]. In data set [4], this compound returned a concentration for half-maximal inhibition (IC50) at 72 h above 10 µM.
As for `CCC(C(=O)Nc1ccc2c(c1)CN(CCc1ccc(OC)c(OC)c1)C(=O)C(C)O2)c1ccccc1` (stereo not given), the IC50 in data set [1] came out at 0.912 µM; in data set [2], 2.88 µM; in data set [3] it was 1.82 µM; in data set [5] it was 0.288 µM. The IC50 at 72 h in data set [4] is above 10 µM.
With `CCOc1ccc(-[n+]2cc(-c3ccccc3)n3c2CCC3)cc1`, the IC50 in data set [1] is above 10 µM; in data set [2], 0.759 µM; in data set [3], 1 µM; in data set [5] it was 0.832 µM. The compound further registered an IC50 at 72 h in data set [4] above 10 µM.
On to `Cc1cc(C)c(NC(=O)OCc2cccc3cccnc23)c(C)c1`, for which the IC50 is above 10 µM in data set [1], 2.82 µM in data set [2], 2.29 µM in data set [3] and 1.05 µM in data set [5]. This compound also had an IC50 at 72 h in data set [4] above 10 µM.
`Cc1nc2cc(NC(=O)[C@@]3(C)CCCN(C(=O)c4ccccc4)C3)ccc2o1`: the IC50 is 0.525 µM in data set [1], above 10 µM in data set [2], above 10 µM in data set [3] and 1.58 µM in data set [5]. The compound further returned an IC50 at 72 h in data set [4] above 10 µM.
As for `Cc1cc2nc(C)c(=O)n(Cc3ccc(C(=O)NCCN4CCCC[C@@H]4C)cc3)c2cc1C`, the IC50 in data set [1] is above 10 µM; in data set [2] it was 5.5 µM; in data set [3], 6.92 µM; in data set [5], 4.17 µM. For the same compound, the IC50 at 72 h in data set [4] was above 10 µM.
For `CCC[N+]1(CC#C[C@@](O)(c2ccccc2)C2(C)CCCC2)CCCCC1`, the IC50 in data set [1] is above 3.16 µM; in data set [2], 3.47 µM; in data set [3], 3.24 µM; in data set [5], 3.24 µM. Further, the IC50 at 72 h in data set [4] was above 10 µM.
Take `Cc1nnc(NC(c2cnc3ccccc3c2)[C@H]2C[C@@H](O)C2)s1` (stereo not given in full): the IC50 was 1.58 µM in data set [1], above 10 µM in data set [2], above 10 µM in data set [3] and 4.07 µM in data set [5]. This compound registered an IC50 at 72 h in data set [4] above 10 µM.
Regarding `COc1ccc(-n2ncc3c(N)c4c(nc32)CCCC4=O)cc1`, the IC50 in data set [1] is 3.89 µM; in data set [2], above 10 µM; in data set [3], above 10 µM; in data set [5] it was 6.61 µM. In data set [4], this compound came in with an IC50 at 72 h above 10 µM.
As for `CC1CC(Nc2ncnc3cc(Br)ccc23)CCN1C` (stereo not given), the IC50 came out at 1.55 µM in data set [1], 1.58 µM in data set [2], 1.07 µM in data set [3] and 1.05 µM in data set [5]. In data set [4], this compound came in with an IC50 at 72 h above 10 µM.
The corresponding values for `Cc1cnccc1NCCNC1CCN(c2ccc(Cl)cc2)CC1` are 0.417 µM, 0.363 µM, 0.372 µM, 0.316 µM and 5.25 µM.
On to `CC(C)CC[C@@H](CCNC1CCN(C)CC1)c1ccc(Cl)cc1`, for which the 50% inhibitory concentration (IC50) was found to be 2.82 µM in data set [1], 2.4 µM in data set [2], 2.19 µM in data set [3] and 1.66 µM in data set [5]. The compound also showed an IC50 at 72 h in data set [4] above 10 µM.
Take `O=C(Nc1cccc(Cl)c1)Nc1cccc(-c2cnc3n2CCC3)c1`: the IC50 in data set [1] stood at 5.89 µM; in data set [2], 5.37 µM; in data set [3], 3.89 µM; in data set [5], 2.4 µM. The compound also registered an IC50 at 72 h in data set [4] above 10 µM.
The corresponding values for `FC(F)Oc1ccc(-c2c[n+](-c3cccc(C(F)(F)F)c3)c3n2CCCCC3)cc1` are above 10 µM, 2.14 µM, 8.91 µM, 2.45 µM and above 10 µM.
As to `CCNC(=O)N1CC[C@H](Oc2ccc3ccccc3n2)C1`, the IC50 in data set [1] is above 10 µM; in data set [2], 7.41 µM; in data set [3], 3.72 µM; in data set [5] it was 2.69 µM. The compound further showed an IC50 at 72 h in data set [4] above 10 µM.
Consider `N#Cc1c(NC(=O)Nc2cn3ccccc3c2C#N)cn2ccccc12`, for which the IC50 in data set [1] was above 10 µM; in data set [2], 1.35 µM; in data set [3], 1 µM; in data set [5] it was 0.302 µM. In data set [4], this compound had an IC50 at 72 h above 10 µM.
As for `Cc1cccc2c(-c3cc(N)nc(N)n3)c[nH]c12`, the IC50 amounted to 3.16 µM in data set [1], 1.2 µM in data set [2], 1.1 µM in data set [3] and 1 µM in data set [5]. In addition, in data set [4], the IC50 at 72 h is above 10 µM.
The corresponding values for `O=C(Nc1[nH]c(=O)ncc1F)c1cccc2ccccc12` are 1.95 µM, 0.0105 µM, above 10 µM, 0.00617 µM and above 10 µM.
With `CCC(CC)c1cc([C@H]2CN3CC[C@H]2C[C@@H]3CNS(=O)(=O)Cc2ccccc2)nc(-c2ccncc2)n1`, the IC50 in data set [1] is 3.89 µM; in data set [2], 4.37 µM; in data set [3] it was 3.89 µM; in data set [5], 2.04 µM. The IC50 at 72 h in data set [4] is above 10 µM.
On to `NC1CC(NCCc2cccc3cccnc23)c2ccccc21` (stereo not given), for which the IC50 was found to be 5.01 µM in data set [1], 7.76 µM in data set [2], 5.75 µM in data set [3] and 2.45 µM in data set [5]. In data set [4], the IC50 at 72 h is above 10 µM.
With `O=C(NCc1ccccc1F)C1CCN(c2cncnc2N2CCCC2)CC1`, the IC50 in data set [1] was 8.71 µM; in data set [2] it was above 10 µM; in data set [3] it was 7.24 µM; in data set [5], 3.55 µM. Moreover, the IC50 at 72 h in data set [4] was above 10 µM.
As to `Cc1ccc(Cn2c(=O)c(C(=O)NCc3ccc4c(c3)OCO4)nn(-c3ccc(C(C)C)cc3)c2=O)cc1`, the IC50 was above 10 µM in data set [1], 8.13 µM in data set [2], 3.39 µM in data set [3] and 2.69 µM in data set [5]. In data set [4], this compound gave an IC50 at 72 h above 10 µM.
On to `CN(C)c1nc(N)cc(-c2cccc3cccnc23)n1`, for which the half-maximal inhibitory concentration (IC50) in data set [1] was above 10 µM; in data set [2] it was 3.8 µM; in data set [3], 3.47 µM; in data set [5], 2 µM. This compound yielded a half-maximal inhibitory concentration (IC50) at 72 h in data set [4] above 10 µM.
As to `CCCOc1cccc2c(NC3CCN(CCOC)CC3)ccnc12`, the concentration for half-maximal inhibition (IC50) was 3.24 µM in data set [1], 2.24 µM in data set [2], 1.58 µM in data set [3] and 1.78 µM in data set [5]. This compound had an IC50 at 72 h in data set [4] above 10 µM.
In the case of `COC1CCCC1NC(=O)Nc1ncc(Br)cc1C` (stereo not given), the IC50 turned out to be 6.76 µM in data set [1], 1.38 µM in data set [2], 2.29 µM in data set [3] and 2 µM in data set [5]. This compound returned an IC50 at 72 h in data set [4] above 10 µM.
The corresponding values for `Cc1cc(N(C)CCC2CC2)nc([C@H](C)N(C)CCC2CC2)n1` are 7.94 µM, 2.4 µM, 2.19 µM, 1.38 µM and above 10 µM.
On to `COc1ccccc1N(Cc1ccccc1)C1=NC(=[N+](Cc2ccccc2)c2ccccc2OC)c2ccccc21`, for which the IC50 in data set [1] was determined as 4.68 µM; in data set [2] it was 6.03 µM; in data set [3], 5.5 µM; in data set [5] it was 2.82 µM. In data set [4], this compound had an IC50 at 72 h above 10 µM.
As for `COc1ccc(CCc2nc(NC(=O)c3nc(C)sc3C)n[nH]2)cc1OC`, the IC50 was 0.676 µM in data set [1], above 10 µM in data set [2], above 10 µM in data set [3] and 1.45 µM in data set [5]. Besides, the IC50 at 72 h in data set [4] is above 10 µM.
Consider `CN1CCC(N2CCN(Cc3ccc4cc(O)ccc4c3)CC2)CC1`, for which the IC50 came out at 4.68 µM in data set [1], 1.91 µM in data set [2], 1.38 µM in data set [3] and 1.66 µM in data set [5]. The compound also gave an IC50 at 72 h in data set [4] above 10 µM.
